Data published in patent US20050101595A1, “N-containing cycloalkyl-substituted amino-thiazole derivatives and pharmaceutical compositions for inhibiting cell proliferation and methods for their use” (PFIZER INC., priority 2003, published 2005).
Where a name gives a salt, the structure may show the parent alone. Read-outs that look alike come from different tables or passages of the source.

Experiments:
[1] = test system: HCT-116 cell line; assay: Inhibition of cell growth, tetrazolium salt (MTT) assay; format: cell-based; conditions: for HCT-116 % Inhibition at 0.25 μM: 0.25 μM compound; for IC50: Homo sapiens, HCT-116, 120 h, MTT, three to five days
In short: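 HCT-116 cells in McCoy's 5A medium received compound 4 h after plating (0.5% v/v DMSO) and were incubated three to five days at 37° C, 5% CO2. MTT (0.2 mg/mL final) then added for 4 h; DMSO-solubilized formazan read at 540 nm against 0.5% DMSO-treated controls.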

[2] = target: human CDK4 and genetically truncated (1-264) cyclin D3 (Homo sapiens, UniProt P11802); assay: Inhibition of CDK4/Cyclin D Retinoblastoma Kinase Activity; format: biochemical; conditions: for Ki: apparent Ki, CDK4/truncated cyclin D3, Rb fragment substrate, 25 μM ATP
In short: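 Read-out: 32P/33P incorporation into Rb fragment (386-928) captured on nitrocellulose, phosphorimager. Enzyme 5 nM CDK4/cyclin D3(1-264) from insect cells; ATP 25 μM, pH 7.4, 30 °C, 20 min (60 min for tight binders). Ki from competitive fits.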

[3] = target: CDK2/Cyclin A (Homo sapiens, UniProt P24941); assay: Inhibition of CDK2/Cyclin A Retinoblastoma Kinase Activity; format: biochemical; conditions: for Ki: apparent Ki, CDK2/proteolyzed cyclin A, Rb fragment substrate, 25 μM ATP; for CDK2 % Inhibition At 0.03 μM: Table 2
In short: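 Human CDK2, baculovirus/insect-cell expressed, complexed with proteolyzed cyclin A (10 nM or 19 nM CDK2) phosphorylates an Rb fragment with 25 μM [32P/33P]ATP at pH 7.4, 30° C, for 60 or 75 minutes under initial-rate conditions. Filter-captured radioactivity is read by phosphorimager; apparent Ki from competitive-inhibition fits.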

[4] = 0.1 μM compound, HCT-116, Table 4
[5] = 0.1 μM compound, HCT-116, Table 3
[6] = first HCT-116 column (c4), read-out: HCT-116 IC50
[7] = second HCT-116 column (c5), read-out: HCT-116 IC50

human CDK4 and genetically truncated (1-264) cyclin D3, sequence (P11802 whole entry, the tested form may be a part): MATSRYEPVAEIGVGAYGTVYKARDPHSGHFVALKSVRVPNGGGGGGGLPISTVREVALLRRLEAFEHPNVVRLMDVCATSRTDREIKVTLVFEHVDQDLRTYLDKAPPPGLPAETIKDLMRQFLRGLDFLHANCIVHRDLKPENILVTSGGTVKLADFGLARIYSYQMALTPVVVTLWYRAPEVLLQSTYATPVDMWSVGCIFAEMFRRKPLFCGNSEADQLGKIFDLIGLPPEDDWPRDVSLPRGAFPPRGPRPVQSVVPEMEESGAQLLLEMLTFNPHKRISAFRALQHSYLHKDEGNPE
human CDK4 and genetically truncated (1-264) cyclin D3, sequence (P30281 1-264 partner): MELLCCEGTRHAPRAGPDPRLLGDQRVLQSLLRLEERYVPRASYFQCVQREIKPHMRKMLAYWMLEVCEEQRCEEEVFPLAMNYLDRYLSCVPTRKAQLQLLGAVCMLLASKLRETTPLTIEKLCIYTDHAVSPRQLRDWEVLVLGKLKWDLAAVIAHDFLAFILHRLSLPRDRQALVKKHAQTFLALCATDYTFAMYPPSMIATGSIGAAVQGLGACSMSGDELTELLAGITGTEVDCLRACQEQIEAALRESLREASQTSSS

## Nc1nc(NC2CCN(C(=O)c3c(F)cccc3F)CC2)sc1C(=O)c1c(F)cccc1F [Example Q12]
[1]; [4]
  HCT-116 % Inhibition at 0.1 μM: 3%
[1]; HCT-116, Table 4
  HCT-116 % Inhibition at 0.25 μM: 46%
[2]; 0.03 μM compound, Table 4
  CDK4 % Inhibition at 0.03 μM: 22%
[3]; 0.03 μM compound, Table 4
  CDK2 % Inhibition at 0.03 μM: −20%

## Cc1cc(C)c(S(=O)(=O)N2CCC(Nc3nc(N)c(C(=O)c4c(F)cccc4F)s3)CC2)c(C)c1 [Example P10]
[1]; [5]
  HCT-116 % Inhibition at 0.1 μM: 14%
[1]; HCT-116, Table 3
  HCT-116 % Inhibition at 0.25 μM: 35%
[2]; 0.03 μM compound, Table 3
  CDK4 % Inhibition at 0.03 μM: 11%
[3]; 0.03 μM compound, Table 3
  CDK2 % Inhibition at 0.03 μM: −14%

## Cc1cc(C)cc(C(=O)N2CCC(Nc3nc(N)c(C(=O)c4c(F)cccc4F)s3)CC2)c1 [Example D14, {4-Amino-2-[1-(3,5-dimethyl-benzoyl)-piperidin-4-ylamino]-thiazol-5-yl}-(2,6-difluoro-phenyl)-methanone]
[1]; [6]
  IC50: 14 nM
[1]; [7]
  IC50: 41 nM
[2]
  Ki: 19 nM
[3]
  Ki: 120 nM

## Nc1nc(NC2CCN(C(=O)CCC3CCCC3)CC2)sc1C(=O)c1c(F)cccc1F [Example Q58]
[1]; [4]
  HCT-116 % Inhibition at 0.1 μM: 0%
[1]; HCT-116, Table 4
  HCT-116 % Inhibition at 0.25 μM: 25%
[2]; 0.03 μM compound, Table 4
  CDK4 % Inhibition at 0.03 μM: 53%
[3]; 0.03 μM compound, Table 4
  CDK2 % Inhibition at 0.03 μM: 29%

## Nc1nc(NC2CCN(C(=O)Oc3ccc(Cl)cc3)CC2)sc1C(=O)c1c(F)cccc1F [Example Q5]
[1]; [4]
  HCT-116 % Inhibition at 0.1 μM: 0.81%
[1]; HCT-116, Table 4
  HCT-116 % Inhibition at 0.25 μM: 36%
[2]; 0.03 μM compound, Table 4
  CDK4 % Inhibition at 0.03 μM: 81%
[3]; 0.03 μM compound, Table 4
  CDK2 % Inhibition at 0.03 μM: 45%

## Nc1nc(NC2CCN(C(=O)Nc3cccnc3)CC2)sc1C(=O)c1c(F)cccc1F [Example O86]
[1]; HCT-116, Table 2
  HCT-116 % Inhibition at 0.25 μM: 47%
[2]; 0.03 μM compound, Table 2
  CDK4 % Inhibition at 0.03 μM: 23%
[3]; 0.03 μM compound
  CDK2 % Inhibition At 0.03 μM: 32%

## COC(=O)c1ccc(C(=O)N2CCC(Nc3nc(N)c(C(=O)c4c(F)cccc4F)s3)CC2)cc1 [Example R33]
[1]; HCT-116 cells, at 0.1 μM
  HCT-116 % Inhibition at 0.1 μM: 1%
[1]; HCT-116 cells
  HCT-116 5 Inhibition at 0.25 μM: 49
[2]; at 0.03 μM
  CDK4 % Inhibition at 0.03 μM: 80%
[3]; at 0.03 μM
  CDK2 % Inhibition at 0.03 μM: 58%

## Nc1nc(NC2CCN(S(=O)(=O)c3ccc(O)nc3)CC2)sc1C(=O)c1c(F)cccc1F [Example H1, 1-{4-Amino-2-[1-(6-hydroxy-pyridine-3-sulfonyl)-piperidin-4-ylamino]-thiazol-5-yl}-1-(2,6-difluoro-phenyl)-methanone Trifluoroacetic Acid Salt]
[1]; [6]
  IC50: 2600 nM
[1]; [7]
  IC50: > 5000 nM
[2]
  Ki: 0.72 nM
[3]
  Ki: < 1 nM

## COc1cc(C(=O)N2CCC(Nc3nc(N)c(C(=O)c4c(F)cccc4F)s3)CC2)cc(OC)c1OC [Example Q22]
[1]; [4]
  HCT-116 % Inhibition at 0.1 μM: 16%
[1]; HCT-116, Table 4
  HCT-116 % Inhibition at 0.25 μM: 48%
[2]; 0.03 μM compound, Table 4
  CDK4 % Inhibition at 0.03 μM: 73%
[3]; 0.03 μM compound, Table 4
  CDK2 % Inhibition at 0.03 μM: 24%

## Nc1nc(NC2CCN(C(=O)C(Cl)(c3ccccc3)c3ccccc3)CC2)sc1C(=O)c1c(F)cccc1F [Example Q51]
[1]; [4]
  HCT-116 % Inhibition at 0.1 μM: 0%
[1]; HCT-116, Table 4
  HCT-116 % Inhibition at 0.25 μM: 34%
[2]; 0.03 μM compound, Table 4
  CDK4 % Inhibition at 0.03 μM: 22%
[3]; 0.03 μM compound, Table 4
  CDK2 % Inhibition at 0.03 μM: 4%

## CCCCOc1ccc(S(=O)(=O)N2CCC(Nc3nc(N)c(C(=O)c4c(F)cccc4F)s3)CC2)cc1 [Example P49]
[1]; [5]
  HCT-116 % Inhibition at 0.1 μM: 10%
[1]; HCT-116, Table 3
  HCT-116 % Inhibition at 0.25 μM: 32%
[2]; 0.03 μM compound, Table 3
  CDK4 % Inhibition at 0.03 μM: 54%
[3]; 0.03 μM compound, Table 3
  CDK2 % Inhibition at 0.03 μM: 36%

## Nc1nc(NC2CCN(C(=O)c3ccccc3C(F)(F)F)CC2)sc1C(=O)c1c(F)cccc1F [Example R124]
[1]; HCT-116 cells, at 0.1 μM
  HCT-116 % Inhibition at 0.1 μM: 0%
[1]; HCT-116 cells
  HCT-116 5 Inhibition at 0.25 μM: 35
[2]; at 0.03 μM
  CDK4 % Inhibition at 0.03 μM: 38%
[3]; at 0.03 μM
  CDK2 % Inhibition at 0.03 μM: 18%

## COc1c(C(=O)N2CCC(Nc3nc(N)c(C(=O)c4c(F)cccc4F)s3)CC2)csc1Cl [Example R49]
[1]; HCT-116 cells, at 0.1 μM
  HCT-116 % Inhibition at 0.1 μM: 0%
[1]; HCT-116 cells
  HCT-116 5 Inhibition at 0.25 μM: 61
[2]; at 0.03 μM
  CDK4 % Inhibition at 0.03 μM: 55%
[3]; at 0.03 μM
  CDK2 % Inhibition at 0.03 μM: 34%

## Nc1nc(NC2CCN(C(=S)Oc3ccc(F)cc3)CC2)sc1C(=O)c1c(F)cccc1F [Example R85]
[1]; HCT-116 cells, at 0.1 μM
  HCT-116 % Inhibition at 0.1 μM: 0%
[1]; HCT-116 cells
  HCT-116 5 Inhibition at 0.25 μM: 47
[2]; at 0.03 μM
  CDK4 % Inhibition at 0.03 μM: 81%
[3]; at 0.03 μM
  CDK2 % Inhibition at 0.03 μM: 90%

## C[C@@H]1CN(c2ccc(S(=O)(=O)N3CCC(Nc4nc(N)c(C(=O)c5c(F)cccc5F)s4)CC3)cc2)C[C@H](C)N1 [Example G29, 1-(4-Amino-2-{1-[4-(3R,5S-dimethyl-piperazin-1-yl)-benzenesulfonyl]-piperidin-4-ylamino}-thiazol-5-yl)-1-(2,6-difluoro-phenyl)-methanone]
[1]; [6]
  IC50: 45 nM
[1]; [7]
  IC50: 250 nM
[2]
  Ki: 0.61 nM
[3]
  Ki: 0.72 nM

## Nc1nc(NC2CCN(C(=O)Oc3ccc([N+](=O)[O-])cc3)CC2)sc1C(=O)c1c(F)cccc1F [Example C16, 4-[4-Amino-5-(2,6-difluoro-benzoyl)-thiazol-2-ylamino]-piperidine-1-carboxylic acid 4-nitro-phenyl ester]
[1]; read-out: HCT-116 IC50, first HCT-116 column (c4)
  IC50: 130 nM
[1]; read-out: HCT-116 IC50, second HCT-116 column (c5)
  IC50: 400 nM
[2]
  Ki: 7.5 nM
[3]
  Ki: 18 nM

## Nc1nc(NC2CCN(C(=O)c3c[nH]cn3)CC2)sc1C(=O)c1c(F)cccc1F [Example C14, 1-{4-Amino-2-[1-(1-1H-imidazol-4-yl-methanoyl)-piperidin-4-ylamino]-thiazol-5-yl}-1-(2,6-difluoro-phenyl)-methanone]
[1]; [6]
  IC50: > 5000 nM
[1]; [7]
  IC50: > 5000 nM
[2]
  Ki: 66 nM
[3]
  Ki: 95 nM

## Cc1cncn1-c1ccc(S(=O)(=O)N2CCC(Nc3nc(N)c(C(=O)c4c(F)cccc4F)s3)CC2)cn1 [Example G28, 1-(4-Amino-2-{1-[6-(5-methyl-imidazol-1-yl)-pyridine-3-sulfonyl]-piperidin-4-ylamino}-thiazol-5-yl)-1-(2,6-difluoro-phenyl)-methanone Hydrochloride]
[1]; [6]
  IC50: 160 nM
[1]; [7]
  IC50: 330 nM
[2]
  Ki: 0.85 nM
[3]
  Ki: 0.4 nM

## Nc1nc(NC2CCN(C(=O)Nc3ccc(C(F)(F)F)cc3)CC2)sc1C(=O)c1c(F)cccc1F [Example O23]
[1]; HCT-116, Table 2
  HCT-116 % Inhibition at 0.25 μM: 24%
[2]; 0.03 μM compound, Table 2
  CDK4 % Inhibition at 0.03 μM: 10%
[3]; 0.03 μM compound
  CDK2 % Inhibition At 0.03 μM: 36%

## COc1ccc(C)cc1S(=O)(=O)N1CCC(Nc2nc(N)c(C(=O)c3c(F)cccc3F)s2)CC1 [Example P59]
[1]; [5]
  HCT-116 % Inhibition at 0.1 μM: 19%
[1]; HCT-116, Table 3
  HCT-116 % Inhibition at 0.25 μM: 24%
[2]; 0.03 μM compound, Table 3
  CDK4 % Inhibition at 0.03 μM: 33%
[3]; 0.03 μM compound, Table 3
  CDK2 % Inhibition at 0.03 μM: 17%

## CN(C)CCCc1ccc(S(=O)(=O)N2CCC(Nc3nc(N)c(C(=O)c4c(F)cccc4F)s3)CC2)cc1 [Example I10, 1-(4-Amino-2-{1-[4-(3-dimethylamino-propyl)-benzenesulfonyl]-piperidin-4-ylamino}-thiazol-5-yl)-1-(2,6-difluoro-phenyl)-methanone D-Glucuronic Acid Salt]
[1]; [6]
  IC50: 200 nM
[1]; [7]
  IC50: 1900 nM
[2]
  Ki: 0.68 nM
[3]
  Ki: 1.2 nM

## Nc1nc(NC2CCN(S(=O)(=O)CCN3CC=CCC3)CC2)sc1C(=O)c1c(F)cccc1F [Example K32, (4-Amino-2-{1-[2-(3,6-dihydro-2H-pyridin-1-yl)-ethanesulfonyl]-piperidin-4-ylamino}-thiazol-5-yl)-(2,6-difluoro-phenyl)-methanone Trifluoroacetic Acid Salt.]
[1]; [6]
  IC50: 190 nM
[1]; [7]
  IC50: 1400 nM
[2]
  Ki: 2.1 nM
[3]
  Ki: 6.2 nM

## CC(=O)Nc1ccc(S(=O)(=O)N2CCCC(Nc3nc(N)c(C(=O)c4c(F)cccc4F)s3)C2)cc1 (stereo not drawn) [Example F36, N-(4-{3-[4-Amino-5-(2,6-difluoro-benzoyl)-thiazol-2-ylamino]-piperidine-1-sulfonyl}-phenyl)-acetamide]
[1]; [6]
  IC50: > 5000 nM
[1]; [7]
  IC50: > 5000 nM
[2]
  Ki: 780 nM
[3]
  Ki: 480 nM
